Patent US20240041977A1, “ANNEXIN A1 N-TERMINAL PEPTIDE FORMULATIONS AND METHODS” (ResoTher Pharma A/S, priority 2020, published 2024)
Marks after values point to notes of the source that are not given here. Ends that are not written are not given here.

Test: ThT assay lag-time (fibrillation propensity, physical stability)
Format: physicochemical
Text: ThT is widely used to visualize and quantify the presence of misfolded peptide and protein aggregates called amyloids or fibrils. ThT is a fluorescent molecule that binds to inter molecular beta-sheets in peptides and proteins (here AnxA1). […] A weaker fluorescence intensity is indicative of less amyloids or fibrils present with fewer intermolecular beta-sheets where ThT can bind. Some peptides have a tendency to form fibrils and amyloids and the propensity is dependent on the formulation conditions in an unpredictable manor. Fibrillation is a stochastic process and to avoid long analysis times and both false negatives and positive results, shear stress is introduced to the sample by rigorous rotation in microtiter plates while continuously monitoring the fluorescence emission at approximately 486 nm. An increase in the fluorescence is an indication of the formation of amyloids or fibrils and the time it takes for the fluorescence to start increasing is known as the lag-time. A faster (short) lag-time is an indication of higher propensity for the peptide to degrade by formation of fibrils or amyloids. A ThT fluorescence of 50 AU at t=0 is considered noise or background. Lag time is reported as the time it takes for the signal intensity to exceed 50 AU. All samples for the ThT assay were filtered through cellulose acetate filters ([…], Ø=13 mm, rinsed with MilliQ® water prior to filtration). For each sample, 20 μL ThT of a 1 mM solution was added to 1 mL peptide solution. From this sample mixture, 200 μL was transferred into n wells in a 96 well microtiter plate (n=3-6). 96-well NUNC plates Bottom optics and Sealing tape, Thermo Scientific™ Nunc™ Sealing Tapes, was used. Lag-time is reported as an average of n samples. A fluorescence plate reader (CLARIOstar® Plus, BMG Labtech) was used for the experiments with the following setting: Excitation wavelength 450 nm; Dichroic filter 465 nm; Emission wavelength 486 nm; Focal height 3.5 mm; Gain 1000; […]; […]; Number of flashes per well 20; Temperature 25° C.; Shake mode orbital, Frequency of 300 rpm, 200 s, and shake after each cycle. If possible, the average of all ThT data replicates are used for ThT lag-time determination. In case of very stochastic data, worst-case data is used for lag-time evaluation. ThT lag-time was determined using either a 1-step or 2-step sigmoidal curve.

lag-time (10 mM tris, pH 7.5, AnxA1 1.7 mg/mL containing 5% mannitol or sorbitol): > 65 h
Lag-time (AnxA1 1.4 mg/mL, mannitol 4 wt.%, sucrose 2.5 wt.%, glycyl-glycine 50 mM, pH 8.5): >65 h
Lag-time (AnxA1 1.4 mg/mL, sucrose 10 wt.%, glycyl-glycine 50 mM, pH 8.5): >65 h
Avg. lag-time (AnxA1 1.5 mg/mL, NaCl 0.9%, ZnCl2 0.77 mM, pH N/A): 1.8 h
Avg-lag time (AnxA1 1.5 mg/mL, glucose 5 wt.%, pH 7.1): 21.7 h
Lag-time (AnxA1 1.5 mg/mL, mannitol 4 wt.%, sucrose 2.5 wt.%, glycyl-glycine 10 mM, pH 7.5): >65 h
Lag-time (AnxA1 1.5 mg/mL, mannitol 4 wt.%, sucrose 2.5 wt.%, glycyl-glycine 50 mM, pH 7.6): >65 h
Lag-time (AnxA1 1.5 mg/mL, mannitol 5 wt.%, glycyl-glycine 10 mM, pH 7.4, analysis timeframe 65 hours): >65* hours
Lag-time (AnxA1 1.5 mg/mL, mannitol 5 wt.%, glycyl-glycine 50 mM, pH 7.5): >65 h
Lag-time (AnxA1 1.5 mg/mL, sucrose 10 wt.%, Tris 10 mM, pH 7.5): 42.8 h
Lag-time (AnxA1 1.5 mg/mL, sucrose 10 wt.%, glycyl-glycine 10 mM, pH 8.3): >65 h
Avg. lag-time (AnxA1 1.6 mg/mL in Milli Q water, no salt, pH 7.5, maximum assay time 50 hours): >50.0* h
Avg. lag-time (AnxA1 1.6 mg/mL in Milli Q water, no salt, pH 7.6, maximum assay time 50 hours): >50.0* h
Avg. lag-time (AnxA1 1.6 mg/mL, 0.9% NaCl in Milli Q water, pH 7.1): 28.3 h
Avg. lag-time (AnxA1 1.6 mg/mL, CaCl2 0.77 mM, pH 7.2): 12.5 h
Avg. lag-time (AnxA1 1.6 mg/mL, CaCl2 0.77 mM, pH 7.4): 10.8 h
Avg. lag-time (AnxA1 1.6 mg/mL, NaCl 0.9%, CaCl2 0.77 mM, pH 7.1): 5.4 h
Lag-time (AnxA1 1.6 mg/mL, mannitol 4 wt.%, sucrose 2.5 wt.%, glycyl-glycine 10 mM, pH 8.4): >65 h
Lag-time (AnxA1 1.6 mg/mL, mannitol 5 wt.%, glycyl-glycine printed as 'e' mM, pH 8.3): >65 h
Lag-time (AnxA1 1.6 mg/mL, mannitol 5 wt.%, glycylglycine 10 mM, pH 8.0, no increase in fluorescence within 65 hours): > 65* hours
Avg-lag time (AnxA1 1.6 mg/mL, mannitol 5 wt.%, pH 6.7, no increase in fluorescence within 65 hours): > 65* h
Lag-time (AnxA1 1.6 mg/mL, sucrose 10 wt.%, glycyl-glycine 50 mM, pH 7.6): 64.7 h
Lag-time (AnxA1 1.6 mg/mL, sucrose 10 wt.%, glycylglycine 10 mM, pH 8.0, no increase in fluorescence within 65 hours): > 65* hours
Avg-lag time (AnxA1 1.6 mg/mL, sucrose 10 wt.%, pH 7.2, no increase in fluorescence within 65 hours): > 65* h
Avg-lag time (AnxA1 1.6 mg/mL, trehalose 10 wt.%, pH 7.2): 33.3 h
Avg. lag-time (AnxA1 1.7 mg/mL in Milli-Q water, pH 7.4, no increase in fluorescence within 65 hours): > 65* h
Lag-time (AnxA1 1.7 mg/mL, mannitol 5 wt.%, Tris 10 mM, pH 7.5, no increase in fluorescence within 65 hours): > 65* hours
Lag-time (AnxA1 1.7 mg/mL, sorbitol 5 wt.%, Tris 10 mM, pH 7.6, no increase in fluorescence within 65 hours): > 65* hours
Lag-time (AnxA1 1.7 mg/mL, sorbitol 5 wt.%, glycylglycine 10 mM, pH 8.0, no increase in fluorescence within 65 hours): > 65* hours
Avg. lag-time (AnxA1 3.1 mg/mL in Milli-Q water, pH 7.4): 50.4 h
Lag-time (AnxA1 3.1 mg/mL, mannitol 5 wt.%, glycylglycine 10 mM, pH 8.0, no increase in fluorescence within 65 hours): > 65* hours
Avg. lag-time (AnxA1 3.2 mg/mL in Saline (0.9% NaCl), pH 7.4): 5.6 h
Avg. lag-time (AnxA1 3.2 mg/mL, 0.9% NaCl in Milli Q water, pH 7.4): 9.3 h
Avg. lag-time (AnxA1 3.2 mg/mL, NaCl 0.9%, pH 7.2): 9.7 h
Lag-time (AnxA1 3.2 mg/mL, mannitol 5 wt.%, glycylglycine 10 mM, pH 8.0, no increase in fluorescence within 65 hours): > 65* hours
Lag-time (AnxA1 3.3 mg/mL, mannitol 5 wt.%, glycylglycine 10 mM, pH 8.0, no increase in fluorescence within 65 hours): > 65* hours
Lag-time (AnxA1 4.0 mg/mL, mannitol 5 wt.%, glycyl-glycine 10 mM, pH 8.2): >65 h
Lag-time (AnxA1 4 mg/mL, tonicity 100%, NaCl 0.9 wt%, positive control sample in 0.9% saline): 8.2* hours
Avg. lag-time (AnxA1 4.6 mg/mL in Milli-Q water, pH 7.4): 61.4 h
Lag-time (AnxA1 4.6 mg/mL, sorbitol 5 wt.%, glycylglycine 10 mM, pH 8.0, no increase in fluorescence within 65 hours): > 65* hours
Lag-time (AnxA1 4.6 mg/mL, sucrose 10 wt.%, glycyl-glycine 30 mM, pH 8.0): 39 h
Lag-time (AnxA1 4.7 mg/mL, mannitol 5 wt.%, Tris 10 mM, pH 7.5): 10.7 h
Lag-time (AnxA1 4.7 mg/mL, mannitol 5 wt.%, glycylglycine 10 mM, pH 8.0, no increase in fluorescence within 65 hours): > 65* hours
Substance: AMVSEFLKQAWFIENEEQEYVQTLKSSKGGPGSAVSPYPTFNPSSDV-NH2 [AnxA1]
fibrillation in ThT assay (6.4 mg/mL, possibly 5.0 mg/ml, and above, 0.9% NaCl): already degraded by the formation of fibrils at time zero
